Data as given in patent US4734492A, “Macrolide antibiotic M 119” (Kirin Beer Kabushiki Kaisha, priority 1985, dated 1988).
≈ marks a conversion by molar mass, not a printed value. Where two headings read alike, the source gives them in different places.

Legend:
[1] = test system: Enterobacter aerogenes ATCC 13048 (MS-1); assay: MIC by agar dilution method; type: cell-based; settings: Klebsiella aerogenes, ATCC13048
Source text: (§1) Also shown in the same table are the MIC's obtained for josamycin (JM) and erythromycin (EM) as controls.

[2] = test system: Pseudomonas aeruginosa NCTC 10490 (MS-1); assay: MIC by agar dilution method; type: cell-based; settings: NCTC10490
Source text: as §1

[3] = test system: Micrococcus luteus ATCC 9341 (MS-1); assay: MIC by agar dilution method; type: cell-based; settings: ATCC9341
Source text: as §1

[4] = test system: Enterobacter cloacae 963 (MS-1); assay: MIC by agar dilution method; type: cell-based
Source text: as §1

Mycoplasma pneumoniae = assay: MIC by agar dilution method; type: cell-based
Source text: as §1

[5] = test system: Salmonella typhimurium IID971 (MS-1); assay: MIC by agar dilution method; type: cell-based; settings: Salmonella enterica
Source text: as §1

[6] = test system: Proteus vulgaris OX-19 (MS-1); assay: MIC by agar dilution method; type: cell-based
Source text: as §1

[7] = test system: Escherichia coli NIHJ-JC-2 (MS-1); assay: MIC by agar dilution method; type: cell-based; settings: NIHJJC2, E. coli NIHJ-JC-2 (MS-1)
Source text: as §1

[8] = test system: Staphylococcus aureus FDA 209PJC-1 (MS-1); assay: MIC by agar dilution method; type: cell-based
Source text: as §1

Bacillus cereus IAM 1729 = assay: MIC by agar dilution method; type: cell-based; settings: IAM1729
Source text: as §1

[9] = test system: Staphylococcus aureus Terajima (MS-1); assay: MIC by agar dilution method; type: cell-based
Source text: as §1

[10] = test system: Proteus morganii IFO 3848 (MS-1); assay: MIC by agar dilution method; type: cell-based; settings: Morganella morganii, IFO3848
Source text: as §1

[11] = test system: Serratia marcescens IAM 1184 (MS-1); assay: MIC by agar dilution method; type: cell-based; settings: IAM1184
Source text: as §1

[12] = test system: Salmonella typhi 901 (MS-1); assay: MIC by agar dilution method; type: cell-based; settings: Salmonella enterica
Source text: as §1

[13] = test system: Pseudomonas aeruginosa IFO 3445 (MS-1); assay: MIC by agar dilution method; type: cell-based; settings: IFO3445
Source text: as §1

[14] = test system: Salmonella paratyphi 1015 (MS-1); assay: MIC by agar dilution method; type: cell-based; settings: Salmonella enterica
Source text: as §1

[15] = test system: Salmonella schottmuelleri 8006 (MS-1); assay: MIC by agar dilution method; type: cell-based
Source text: as §1

[16] = test system: Staphylococcus aureus MS 353 (MS-1); assay: MIC by agar dilution method; type: cell-based
Source text: as §1

[17] = test system: Escherichia coli K12 C600 (MS-1); assay: MIC by agar dilution method; type: cell-based; settings: E. coli K12 C600 (MS-1)
Source text: as §1

[18] = test system: Salmonella enteritidis G 14 (MS-1); assay: MIC by agar dilution method; type: cell-based; settings: Salmonella enterica
Source text: as §1

[19] = test system: Klebsiella pneumoniae PCI-602 (MS-1); assay: MIC by agar dilution method; type: cell-based
Source text: as §1

[20] = test system: Pseudomonas aeruginosa PAO 1 (MS-1); assay: MIC by agar dilution method; type: cell-based
Source text: as §1

[21] = test system: Bacillus subtilis ATCC 6633 (MS-1); assay: MIC by agar dilution method; type: cell-based; settings: ATCC6633
Source text: as §1

[22] = test system: Streptococcus pyogenes Cook (MS-1); assay: MIC by agar dilution method; type: cell-based
Source text: as §1

[23] = test system: Proteus rettgeri IFO 3850 (MS-1); assay: MIC by agar dilution method; type: cell-based; settings: Providencia rettgeri, IFO3850
Source text: as §1

[24] = test system: Staphylococcus aureus MS 12917 Mac^r; assay: MIC by agar dilution method; type: cell-based
Source text: as §1
(§2) Note: "Mac^r " stands for a constitutive macrolide resistant

[25] = test system: Staphylococcus aureus MS 15009 (pI258) Mac^r; assay: MIC by agar dilution method; type: cell-based
Source text: as §1, §2

Solubility = type: physicochemical
[26] = agar dilution, Enterobacter aerogenes ATCC 13048 (MS-1), read-out: MIC
[27] = agar dilution, Pseudomonas aeruginosa NCTC 10490 (MS-1), read-out: MIC
[28] = agar dilution, Micrococcus luteus ATCC 9341 (MS-1), read-out: MIC
[29] = agar dilution, Enterobacter cloacae 963 (MS-1), read-out: MIC
[30] = agar dilution, Mycoplasma pneumoniae, read-out: MIC
[31] = agar dilution, Salmonella typhimurium IID971 (MS-1), read-out: MIC
[32] = agar dilution, Proteus vulgaris OX-19 (MS-1), read-out: MIC
[33] = agar dilution, S. aureus FDA 209PJC-1 (MS-1), read-out: MIC
[34] = agar dilution, Bacillus cereus IAM 1729, read-out: MIC
[35] = agar dilution, S. aureus Terajima (MS-1), read-out: MIC
[36] = agar dilution, Proteus morganii IFO 3848 (MS-1), read-out: MIC
[37] = agar dilution, Serratia marcescens IAM 1184 (MS-1), read-out: MIC
[38] = agar dilution, Pseudomonas aeruginosa IFO 3445 (MS-1), read-out: MIC
[39] = agar dilution, S. aureus MS 353 (MS-1), read-out: MIC
[40] = agar dilution, Salmonella enteritidis G 14 (MS-1), read-out: MIC
[41] = agar dilution, Klebsiella pneumoniae PCI-602 (MS-1), read-out: MIC
[42] = agar dilution, Pseudomonas aeruginosa PAO 1 (MS-1), read-out: MIC
[43] = agar dilution, Bacillus subtilis ATCC 6633 (MS-1), read-out: MIC
[44] = agar dilution, Streptococcus pyogenes Cook (MS-1), read-out: MIC
[45] = agar dilution, Proteus rettgeri IFO 3850 (MS-1), read-out: MIC

Compound | MIC [7] [µg/mL] | MIC [12] [µg/mL] | MIC [14] [µg/mL] | MIC [15] [µg/mL] | MIC [17] [µg/mL] | MIC [24] [µg/mL] | MIC [25] [µg/mL] | MIC [1, 26] [µg/mL] | MIC [2, 27] [µg/mL] | MIC [3, 28] [µg/mL] | MIC [4, 29] [µg/mL] | MIC [5, 31] [µg/mL] | MIC [6, 32] [µg/mL] | MIC [8, 33] [µg/mL] | MIC (Bacillus cereus IAM 1729; [34]) [µg/mL] | MIC [9, 35] [µg/mL] | MIC [10, 36] [µg/mL] | MIC [11, 37] [µg/mL] | MIC [13, 38] [µg/mL] | MIC [16, 39] [µg/mL] | other results
CC[C@H]1OC(=O)[C@H](C)[C@@H](O[C@H]2C[C@@](C)(OC)[C@@H](O)[C@H](C)O2)[C@H](C)[C@@H](O[C@@H]2O[C@H](C)C[C@H](N(C)C)[C@H]2O)[C@](C)(O)C[C@@H](C)C(=O)[C@H](C)[C@@H](O)[C@]1(C)O [EM, erythromycin, reference compound] | 100 (≈ 136 µM) | 50 (≈ 68.1 µM) | 25 (≈ 34.1 µM) | 50 (≈ 68.1 µM) | 50 (≈ 68.1 µM) | > 100 | > 100 |  |  |  |  |  |  |  |  |  |  |  |  |  | MIC [1]: 100 µg/mL (≈ 136 µM); MIC ([2]; Pseudomonas aeruginosa): > 100 µg/mL; MIC ([3]; Micrococcus luteus): < 0.1 µg/mL; MIC ([4]; Enterobacter cloacae): > 100 µg/mL; MIC (Mycoplasma pneumoniae; Mycoplasma): 0.1 µg/mL (≈ 0.136 µM); MIC [5]: 100 µg/mL (≈ 136 µM); MIC ([6]; Proteus vulgaris): > 100 µg/mL; MIC [8]: 0.2 µg/mL (≈ 0.273 µM); MIC (Bacillus cereus IAM 1729; Bacillus cereus): 0.2 µg/mL (≈ 0.273 µM); MIC [9]: 0.2 µg/mL (≈ 0.273 µM); MIC [10]: 25 µg/mL (≈ 34.1 µM); MIC ([11]; Serratia marcescens): 100 µg/mL (≈ 136 µM); MIC ([13]; Pseudomonas aeruginosa): > 100 µg/mL; MIC [16]: 0.2 µg/mL (≈ 0.273 µM); MIC ([18]; ENTERITIDIS): 100 µg/mL (≈ 136 µM); MIC ([19]; Klebsiella pneumoniae): 6.25 µg/mL (≈ 8.52 µM); MIC ([20]; Pseudomonas aeruginosa): > 100 µg/mL; MIC ([21]; Bacillus subtilis): < 0.1 µg/mL; MIC ([22]; Streptococcus pyogenes): 0.2 µg/mL (≈ 0.273 µM); MIC [23]: > 100 µg/mL
CO[C@@H]1[C@@H](O[C@@H]2O[C@H](C)[C@@H](O[C@H]3C[C@@](C)(O)[C@@H](OC(=O)CC(C)C)[C@H](C)O3)[C@H](N(C)C)[C@H]2O)[C@@H](CC=O)C[C@@H](C)[C@@H](O)/C=C/C=C/C[C@@H](C)OC(=O)C[C@H]1OC(C)=O [JM, josamycin, reference compound] | > 100 | > 100 | 100 (≈ 121 µM) | > 100 | > 100 | > 100 | > 100 | > 100 | > 100 | < 0.1 | > 100 | > 100 | > 100 | 0.2 (≈ 0.242 µM) | 0.39 (≈ 0.471 µM) | 0.78 (≈ 0.942 µM) | > 100 | > 100 | > 100 | 0.78 (≈ 0.942 µM) | MIC (Mycoplasma pneumoniae; [30]): 0.2 µg/mL (≈ 0.242 µM); MIC [18, 40]: > 100 µg/mL; MIC [19, 41]: 12.5 µg/mL (≈ 15.1 µM); MIC [20, 42]: > 100 µg/mL; MIC [21, 43]: 0.39 µg/mL (≈ 0.471 µM); MIC [22, 44]: 0.2 µg/mL (≈ 0.242 µM); MIC [23, 45]: > 100 µg/mL
CCC1OC(=O)CC(O)C(C)C(OC2OC(C)C(OC3CC(C)(O)C(O)C(C)O3)C(N(C)C)C2O)C(CC=O)CC(C)C(=O)C=CC2(C)OC2C1C (stereo not drawn) [M 119-a] | > 100 | 100 (≈ 135 µM) | 50 (≈ 67.4 µM) | 100 (≈ 135 µM) | 100 (≈ 135 µM) | > 100 | > 100 | > 100 | > 100 | < 0.1 | > 100 | > 100 | > 100 | 0.2 (≈ 0.27 µM) | 0.39 (≈ 0.526 µM) | 0.78 (≈ 1.05 µM) | 50 (≈ 67.4 µM) | > 100 | > 100 | 0.78 (≈ 1.05 µM) | MIC (Mycoplasma pneumoniae; [30]): 0.1 µg/mL (≈ 0.135 µM); MIC [18, 40]: > 100 µg/mL; MIC [19, 41]: 12.5 µg/mL (≈ 16.8 µM); MIC [20, 42]: > 100 µg/mL; MIC [21, 43]: 0.2 µg/mL (≈ 0.27 µM); MIC [22, 44]: 0.2 µg/mL (≈ 0.27 µM); MIC [23, 45]: > 100 µg/mL; Solubility (Solubility; in hexane, ether and water): insoluble; Solubility (Solubility; in methanol and chloroform): Soluble
CCC1OC(=O)CC(O)C(C)C(OC2OC(C)C(OC3CC(C)(O)C(O)C(C)O3)C(N(C)C)C2O)C(CC=O)CC(C)C(=O)C=CC2(C)OC2C1(C)O (stereo not drawn) [M 119-d] | > 100 | 100 (≈ 132 µM) | 25 (≈ 33 µM) | 25 (≈ 33 µM) | 100 (≈ 132 µM) | > 100 | > 100 | 100 (≈ 132 µM) | > 100 | 0.2 (≈ 0.264 µM) | > 100 | > 100 | > 100 | 0.78 (≈ 1.03 µM) | 1.56 (≈ 2.06 µM) | 3.13 (≈ 4.13 µM) | 50 (≈ 66 µM) | > 100 | > 100 | 3.13 (≈ 4.13 µM) | MIC [18, 40]: > 100 µg/mL; MIC [19, 41]: 12.5 µg/mL (≈ 16.5 µM); MIC [20, 42]: > 100 µg/mL; MIC [21, 43]: 0.78 µg/mL (≈ 1.03 µM); MIC [22, 44]: 0.78 µg/mL (≈ 1.03 µM); MIC [23, 45]: > 100 µg/mL; Solubility (Solubility; in hexane, ether and water): insoluble; Solubility (Solubility; in methanol and chloroform): Soluble
